# Active and inactive are the calls of the source. No cut-off for these calls is given here.
# System: HT-29
# Experiment: Cytotoxicity against human HT-29 cells incubated for 16 to 24 hrs measured by cell-titre glo luminescent cell viability assay
# Type: functional
# Details: time 16-24 hrs
row,Compound,CC50 [nM]
1,CCCC(=O)NC1CCC(C(=O)Nc2nc3cc(F)c(Oc4ccc(F)c(NC(=O)Cc5cccc(C(F)(F)F)c5)c4)cc3s2)CC1 (centres undefined),> 100000
2,CC(=O)OCC(=O)NC1CCC(C(=O)Nc2nc3cc(F)c(Oc4ccc(F)c(NC(=O)Cc5cccc(C(F)(F)F)c5)c4)cc3s2)CC1 (centres undefined),> 100000
3,N#Cc1c(Oc2ccc(F)c(NC(=O)Cc3cccc(C(F)(F)F)c3)c2)ccc2nc(NC(=O)C3CC3)sc12,> 50000
4,CC(C)C(=O)NC1CCC(C(=O)Nc2nc3cc(F)c(Oc4ccc(F)c(NC(=O)Cc5cccc(C(F)(F)F)c5)c4)cc3s2)CC1 (centres undefined),> 100000
5,O=C(Cc1cccc(C(F)(F)F)c1)Nc1cc(Oc2cc3sc(NC(=O)C4CCC(NS(=O)(=O)c5ccccc5)CC4)nc3cc2F)ccc1F (centres undefined),> 100000
6,O=C(Cc1cccc(C(F)(F)F)c1)Nc1cc(Oc2cc3sc(NC(=O)C4CCC(NC(=O)c5cccs5)CC4)nc3cc2F)ccc1F (centres undefined),> 100000
7,COCC(=O)NC1CCC(C(=O)Nc2nc3cc(F)c(Oc4ccc(F)c(NC(=O)Cc5cccc(C(F)(F)F)c5)c4)cc3s2)CC1 (centres undefined),> 100000
8,CCCC1CCC(C(=O)Nc2nc3cc(F)c(Oc4ccc(F)c(NC(=O)Cc5cccc(C(F)(F)F)c5)c4)cc3s2)CC1 (centres undefined),> 100000
9,CCC(=O)NC1CCC(C(=O)Nc2nc3cc(F)c(Oc4ccc(F)c(NC(=O)Cc5cccc(C(F)(F)F)c5)c4)cc3s2)CC1 (centres undefined),> 100000
10,CCCCC(=O)NC1CCC(C(=O)Nc2nc3cc(F)c(Oc4ccc(F)c(NC(=O)Cc5cccc(C(F)(F)F)c5)c4)cc3s2)CC1 (centres undefined),> 100000
11,CC(C)(C)OC(=O)NC1CCC(C(=O)Nc2nc3cc(F)c(Oc4ccc(F)c(NC(=O)Cc5cccc(C(F)(F)F)c5)c4)cc3s2)CC1 (centres undefined),> 100000
12,CC(C)(C)OC(=O)NC1CCCC(C(=O)Nc2nc3cc(F)c(Oc4ccc(F)c(NC(=O)Cc5cccc(C(F)(F)F)c5)c4)cc3s2)C1 (centres undefined),> 100000

# System: HT-29
# Experiment: Anti-necroptotic activity in human HT-29 cells assessed as inhibition of human TNFalpha/Smac mimetic/Z-VAD-FMK induced necroptosis preincubated with compound followed by TSZ stimulation for 12 hrs
# Type: functional, cell-based
# Details: not given
row,Compound,Activity
1,CCCC(=O)NC1CCC(C(=O)Nc2nc3cc(F)c(Oc4ccc(F)c(NC(=O)Cc5cccc(C(F)(F)F)c5)c4)cc3s2)CC1 (centres undefined),inactive
2,CC(=O)OCC(=O)NC1CCC(C(=O)Nc2nc3cc(F)c(Oc4ccc(F)c(NC(=O)Cc5cccc(C(F)(F)F)c5)c4)cc3s2)CC1 (centres undefined),inactive
3,CC(C)C(=O)NC1CCC(C(=O)Nc2nc3cc(F)c(Oc4ccc(F)c(NC(=O)Cc5cccc(C(F)(F)F)c5)c4)cc3s2)CC1 (centres undefined),inactive
4,O=C(Cc1cccc(C(F)(F)F)c1)Nc1cc(Oc2cc3sc(NC(=O)C4CCC(NS(=O)(=O)c5ccccc5)CC4)nc3cc2F)ccc1F (centres undefined),inactive
5,O=C(Cc1cccc(C(F)(F)F)c1)Nc1cc(Oc2cc3sc(NC(=O)C4CCC(NC(=O)c5cccs5)CC4)nc3cc2F)ccc1F (centres undefined),inactive
6,COCC(=O)NC1CCC(C(=O)Nc2nc3cc(F)c(Oc4ccc(F)c(NC(=O)Cc5cccc(C(F)(F)F)c5)c4)cc3s2)CC1 (centres undefined),inactive
7,CCCC1CCC(C(=O)Nc2nc3cc(F)c(Oc4ccc(F)c(NC(=O)Cc5cccc(C(F)(F)F)c5)c4)cc3s2)CC1 (centres undefined),inactive
8,CCC(=O)NC1CCC(C(=O)Nc2nc3cc(F)c(Oc4ccc(F)c(NC(=O)Cc5cccc(C(F)(F)F)c5)c4)cc3s2)CC1 (centres undefined),inactive
9,CCCCC(=O)NC1CCC(C(=O)Nc2nc3cc(F)c(Oc4ccc(F)c(NC(=O)Cc5cccc(C(F)(F)F)c5)c4)cc3s2)CC1 (centres undefined),inactive
10,CC(C)(C)OC(=O)NC1CCC(C(=O)Nc2nc3cc(F)c(Oc4ccc(F)c(NC(=O)Cc5cccc(C(F)(F)F)c5)c4)cc3s2)CC1 (centres undefined),inactive
11,CC(C)(C)OC(=O)NC1CCCC(C(=O)Nc2nc3cc(F)c(Oc4ccc(F)c(NC(=O)Cc5cccc(C(F)(F)F)c5)c4)cc3s2)C1 (centres undefined),inactive

# System: HT-29
# Experiment: Anti-necroptotic activity in human HT-29 cells assessed as inhibition of human TNFalpha/Smac mimetic/Z-VAD-FMK induced necroptosis preincubated with compound for 16 to 24 hrs followed by TSZ stimulation for 12 hrs measured by cell-titre glo luminescent cell viability assay
# Type: functional, cell-based
# Details: not given
row,Compound,EC50 [nM]
1,CCCC(=O)NC1CCC(C(=O)Nc2nc3cc(F)c(Oc4ccc(F)c(NC(=O)Cc5cccc(C(F)(F)F)c5)c4)cc3s2)CC1 (centres undefined),82.7
2,CC(=O)OCC(=O)NC1CCC(C(=O)Nc2nc3cc(F)c(Oc4ccc(F)c(NC(=O)Cc5cccc(C(F)(F)F)c5)c4)cc3s2)CC1 (centres undefined),81.8
3,CC(C)C(=O)NC1CCC(C(=O)Nc2nc3cc(F)c(Oc4ccc(F)c(NC(=O)Cc5cccc(C(F)(F)F)c5)c4)cc3s2)CC1 (centres undefined),34.1
4,O=C(Cc1cccc(C(F)(F)F)c1)Nc1cc(Oc2cc3sc(NC(=O)C4CCC(NS(=O)(=O)c5ccccc5)CC4)nc3cc2F)ccc1F (centres undefined),234
5,O=C(Cc1cccc(C(F)(F)F)c1)Nc1cc(Oc2cc3sc(NC(=O)C4CCC(NC(=O)c5cccs5)CC4)nc3cc2F)ccc1F (centres undefined),52.9
6,COCC(=O)NC1CCC(C(=O)Nc2nc3cc(F)c(Oc4ccc(F)c(NC(=O)Cc5cccc(C(F)(F)F)c5)c4)cc3s2)CC1 (centres undefined),44.8
7,CCCC1CCC(C(=O)Nc2nc3cc(F)c(Oc4ccc(F)c(NC(=O)Cc5cccc(C(F)(F)F)c5)c4)cc3s2)CC1 (centres undefined),> 10000
8,CCC(=O)NC1CCC(C(=O)Nc2nc3cc(F)c(Oc4ccc(F)c(NC(=O)Cc5cccc(C(F)(F)F)c5)c4)cc3s2)CC1 (centres undefined),83.2
9,CCCCC(=O)NC1CCC(C(=O)Nc2nc3cc(F)c(Oc4ccc(F)c(NC(=O)Cc5cccc(C(F)(F)F)c5)c4)cc3s2)CC1 (centres undefined),42.4
10,CC(C)(C)OC(=O)NC1CCC(C(=O)Nc2nc3cc(F)c(Oc4ccc(F)c(NC(=O)Cc5cccc(C(F)(F)F)c5)c4)cc3s2)CC1 (centres undefined),136
11,CC(C)(C)OC(=O)NC1CCCC(C(=O)Nc2nc3cc(F)c(Oc4ccc(F)c(NC(=O)Cc5cccc(C(F)(F)F)c5)c4)cc3s2)C1 (centres undefined),334

# System: Mus musculus
# Experiment: In vivo anti-inflammatory activity in NNK induced induced C57BL/6J ALI mouse model assessed as lung injury score pretreated at 5 mg/kg, ip for 1 hr followed by NNK administration relative to disease model (reference value: 5.7 +/- 0.5)
# Type: functional
# Details: not given
row,Compound,Activity
1,C[C@@H]1C[C@H]2[C@@H]3CCC4=CC(=O)C=C[C@]4(C)[C@@]3(F)[C@@H](O)C[C@]2(C)[C@@]1(O)C(=O)CO [DEXAMETHASONE],3.7

# Molecular target: Receptor-interacting serine/threonine-protein kinase 3 (Homo sapiens, UniProt Q9Y572)
# Sequence (Q9Y572 whole entry, the tested form may be a part): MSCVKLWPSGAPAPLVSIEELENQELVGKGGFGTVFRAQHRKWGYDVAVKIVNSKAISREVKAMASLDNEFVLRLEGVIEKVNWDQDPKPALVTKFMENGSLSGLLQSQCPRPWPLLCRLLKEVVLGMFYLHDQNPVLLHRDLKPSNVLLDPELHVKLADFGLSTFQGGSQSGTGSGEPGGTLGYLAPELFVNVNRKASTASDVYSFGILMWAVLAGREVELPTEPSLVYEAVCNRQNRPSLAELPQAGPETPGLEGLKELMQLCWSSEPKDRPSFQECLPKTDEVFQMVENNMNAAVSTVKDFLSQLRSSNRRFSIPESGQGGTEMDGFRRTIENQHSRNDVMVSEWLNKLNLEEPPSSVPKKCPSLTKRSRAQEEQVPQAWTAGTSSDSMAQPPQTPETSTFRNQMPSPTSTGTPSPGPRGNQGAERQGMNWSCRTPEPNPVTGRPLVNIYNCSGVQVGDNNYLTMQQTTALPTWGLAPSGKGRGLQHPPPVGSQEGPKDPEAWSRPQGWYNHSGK
# Experiment: Binding affinity to human wildtype full length RIPK3 (M1 to Q307 residues) expressed in bacterial expression system assessed as dissociation constant by kinome scan kd select based qPCR analysis
# Details: not given
row,Compound,Kd [nM]
1,CC(C)C(=O)NC1CCC(C(=O)Nc2nc3cc(F)c(Oc4ccc(F)c(NC(=O)Cc5cccc(C(F)(F)F)c5)c4)cc3s2)CC1 (centres undefined),> 10000
2,O=C(Cc1cccc(C(F)(F)F)c1)Nc1cc(Oc2cc3sc(NC(=O)C4CCC(NC(=O)c5cccs5)CC4)nc3cc2F)ccc1F (centres undefined),> 10000
3,COCC(=O)NC1CCC(C(=O)Nc2nc3cc(F)c(Oc4ccc(F)c(NC(=O)Cc5cccc(C(F)(F)F)c5)c4)cc3s2)CC1 (centres undefined),> 10000
4,CCCCC(=O)NC1CCC(C(=O)Nc2nc3cc(F)c(Oc4ccc(F)c(NC(=O)Cc5cccc(C(F)(F)F)c5)c4)cc3s2)CC1 (centres undefined),> 10000

# Molecular target: T1, Receptor-interacting serine/threonine-protein kinase 1 (Homo sapiens, UniProt Q13546)
# T1 sequence (Q13546 whole entry): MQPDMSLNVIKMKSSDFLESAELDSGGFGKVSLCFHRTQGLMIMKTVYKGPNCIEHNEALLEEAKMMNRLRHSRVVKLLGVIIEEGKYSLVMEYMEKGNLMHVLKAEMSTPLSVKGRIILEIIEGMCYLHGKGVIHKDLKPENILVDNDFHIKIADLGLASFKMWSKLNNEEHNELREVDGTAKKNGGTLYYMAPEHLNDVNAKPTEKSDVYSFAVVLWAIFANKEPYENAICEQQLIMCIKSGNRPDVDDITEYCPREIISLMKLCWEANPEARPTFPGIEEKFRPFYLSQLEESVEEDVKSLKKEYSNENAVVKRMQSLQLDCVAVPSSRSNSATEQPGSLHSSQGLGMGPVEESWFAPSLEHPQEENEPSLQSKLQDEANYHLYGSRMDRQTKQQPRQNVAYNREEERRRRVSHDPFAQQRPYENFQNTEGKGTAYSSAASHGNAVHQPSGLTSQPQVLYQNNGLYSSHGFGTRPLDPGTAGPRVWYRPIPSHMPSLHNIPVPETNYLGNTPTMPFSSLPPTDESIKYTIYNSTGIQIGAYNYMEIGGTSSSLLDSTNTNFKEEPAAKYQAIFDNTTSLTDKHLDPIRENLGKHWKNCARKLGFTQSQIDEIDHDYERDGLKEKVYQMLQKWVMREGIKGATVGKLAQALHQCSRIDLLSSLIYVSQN
# Experiment: Binding affinity to human wildtype full length RIPK1 (M1 to K305 residues) expressed in bacterial expression system assessed as dissociation constant by kinome scan kd select based qPCR analysis
# Details: not given
row,Compound,Kd [nM]
1,CC(C)C(=O)NC1CCC(C(=O)Nc2nc3cc(F)c(Oc4ccc(F)c(NC(=O)Cc5cccc(C(F)(F)F)c5)c4)cc3s2)CC1 (centres undefined),15
2,O=C(Cc1cccc(C(F)(F)F)c1)Nc1cc(Oc2cc3sc(NC(=O)C4CCC(NC(=O)c5cccs5)CC4)nc3cc2F)ccc1F (centres undefined),69
3,COCC(=O)NC1CCC(C(=O)Nc2nc3cc(F)c(Oc4ccc(F)c(NC(=O)Cc5cccc(C(F)(F)F)c5)c4)cc3s2)CC1 (centres undefined),15
4,CCCCC(=O)NC1CCC(C(=O)Nc2nc3cc(F)c(Oc4ccc(F)c(NC(=O)Cc5cccc(C(F)(F)F)c5)c4)cc3s2)CC1 (centres undefined),45

# System: HT-29
# Experiment: Cytotoxicity against human HT-29 cells incubated at 100 uM for 16 to 24 hrs measured by cell-titre glo luminescent cell viability assay
# Type: functional, cell-based
# Details: time 16-24 hrs
row,Compound,Activity
1,CCCC(=O)NC1CCC(C(=O)Nc2nc3cc(F)c(Oc4ccc(F)c(NC(=O)Cc5cccc(C(F)(F)F)c5)c4)cc3s2)CC1 (centres undefined),Active
2,CC(=O)OCC(=O)NC1CCC(C(=O)Nc2nc3cc(F)c(Oc4ccc(F)c(NC(=O)Cc5cccc(C(F)(F)F)c5)c4)cc3s2)CC1 (centres undefined),Active
3,CC(C)C(=O)NC1CCC(C(=O)Nc2nc3cc(F)c(Oc4ccc(F)c(NC(=O)Cc5cccc(C(F)(F)F)c5)c4)cc3s2)CC1 (centres undefined),Active
4,O=C(Cc1cccc(C(F)(F)F)c1)Nc1cc(Oc2cc3sc(NC(=O)C4CCC(NS(=O)(=O)c5ccccc5)CC4)nc3cc2F)ccc1F (centres undefined),Active
5,O=C(Cc1cccc(C(F)(F)F)c1)Nc1cc(Oc2cc3sc(NC(=O)C4CCC(NC(=O)c5cccs5)CC4)nc3cc2F)ccc1F (centres undefined),Active
6,COCC(=O)NC1CCC(C(=O)Nc2nc3cc(F)c(Oc4ccc(F)c(NC(=O)Cc5cccc(C(F)(F)F)c5)c4)cc3s2)CC1 (centres undefined),Active
7,CCCC1CCC(C(=O)Nc2nc3cc(F)c(Oc4ccc(F)c(NC(=O)Cc5cccc(C(F)(F)F)c5)c4)cc3s2)CC1 (centres undefined),Active
8,CCC(=O)NC1CCC(C(=O)Nc2nc3cc(F)c(Oc4ccc(F)c(NC(=O)Cc5cccc(C(F)(F)F)c5)c4)cc3s2)CC1 (centres undefined),Active
9,CCCCC(=O)NC1CCC(C(=O)Nc2nc3cc(F)c(Oc4ccc(F)c(NC(=O)Cc5cccc(C(F)(F)F)c5)c4)cc3s2)CC1 (centres undefined),Active
10,CC(C)(C)OC(=O)NC1CCC(C(=O)Nc2nc3cc(F)c(Oc4ccc(F)c(NC(=O)Cc5cccc(C(F)(F)F)c5)c4)cc3s2)CC1 (centres undefined),Active
11,CC(C)(C)OC(=O)NC1CCCC(C(=O)Nc2nc3cc(F)c(Oc4ccc(F)c(NC(=O)Cc5cccc(C(F)(F)F)c5)c4)cc3s2)C1 (centres undefined),Active
